Like-named read-outs stand apart in the source and are kept apart here. Where no end group is shown, it is not given here.
How the values were obtained:
HLA DRB1 *0701 [1] = molecular target: T1, HLA DRB1 *0701 (Homo sapiens, UniProt P01903+P01911, A100R/A102G/A103Q/D57E/D86V/E43K/F76Y/K127E/L162R/M171V/P40G/Q125H/Q99D/R33Q/R42Y/R54Q/S133A/S66F/T210M/V115G/Y107V/Y59L/Y89S); assay: IC50nM to purified HLA | DRB1 *0701
Procedure: (§1) Table printed on a drawing sheet, FIG. 1 (contd.)
(§2) Head of the field: IC50nM to purified HLA | DRB1 *0701
(§3) First copying reader's note: Continued from the preceding sheet of FIG. 1; decimal commas are used, the analog names give the substituted residues and positions in PADRE, and some values are printed in italics or bold and some SEQ ID NOs bold and underlined without a legend on this sheet.
(§4) Where the first naming reader finds the target: head: IC50nM to purified HLA | DRB1 *0701

HLA DRB1 *0401 = HLA DRB1 *0401 (Homo sapiens, UniProt P01903+P01911, A100K/A169T/F76Y/I96L/K127E/L162R/M171V/N62H/P40V/Q125Y/R42H/S133A/S149N/S66Y/V115G/V209L/W38E); assay: IC50nM to purified HLA | DRB1 *0401
Procedure: as §1
Head of the field: IC50nM to purified HLA | DRB1 *0401
as §3
Where the first naming reader finds the target: head: IC50nM to purified HLA | DRB1 *0401

HLA DRB1 *0802 [2] = molecular target: T2, HLA DRB1 *0802 (Homo sapiens, UniProt P01903+P01911, A100R/A103L/A169T/F76Y/H45Y/I96F/K41T/L162R/M171V/P40S/Q125H/Q178H/Q39Y/Q99D/R218S/R42G/S66Y/V115G/W38E); assay: IC50nM to purified HLA | DRB1 *0802
Procedure: as §1
(§5) Head of the field: IC50nM to purified HLA | DRB1 *0802
as §3
(§6) Where the first naming reader finds the target: head: IC50nM to purified HLA | DRB1 *0802

HLA DRB5 *0101 = HLA DRB5 *0101 (Homo sapiens, UniProt P01903+Q30154); assay: IC50nM to purified HLA | DRB5 *0101
Procedure: as §1
Head of the field: IC50nM to purified HLA | DRB5 *0101
as §3
Where the first naming reader finds the target: head: IC50nM to purified HLA | DRB5 *0101

HLA DRB1 *0301 = HLA DRB1 *0301 (Homo sapiens, UniProt P01903+P01911, A100K/A102G/A103R/A169T/F55Y/I96L/K41T/L162R/M171V/P40S/Q125H/Q178H/Q39Y/R42S/S66N/T106N/T262R/W38E/Y61H); assay: IC50nM to purified HLA | DRB1 *0301
Sequence of HLA DRB1 *0301 (P01903 26-254 limits assumed, other chains not shown): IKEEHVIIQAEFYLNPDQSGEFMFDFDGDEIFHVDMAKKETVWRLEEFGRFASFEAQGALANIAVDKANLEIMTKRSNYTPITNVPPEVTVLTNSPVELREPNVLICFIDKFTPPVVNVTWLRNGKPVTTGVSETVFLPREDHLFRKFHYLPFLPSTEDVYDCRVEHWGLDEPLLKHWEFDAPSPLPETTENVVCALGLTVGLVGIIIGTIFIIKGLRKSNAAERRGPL
Procedure: as §1
Head of the field: IC50nM to purified HLA | DRB1 *0301
as §3
Where the first naming reader finds the target: head: IC50nM to purified HLA | DRB1 *0301

[3] = tested on: crude extract from E. coli; assay: In situ protease assay: TNFα variants in E. coli crude extract, SDS-PAGE and Western blot; format: in vitro ADME; details: sequence inserted into loop EF of human TNFα, procedure of Example 2
Procedure: In order to test the protease resistance of selected, good binding PADRE analogues, their sequences were inserted by cloning techniques into a loop (loop EF) in human TNFα. Cell-free protein crude extract from E. coli expressing the modified TNFα molecules was prepared and proteolytic cleavage within the PADRE analogue sequences was analysed by SDS-PAGE followed by immunoblotting.
A synthetic cDNA encoding TNF (Y87S) was used as template. Oligonucleotides encoding PADRE or PADRE analogues were inserted into the template between A185 and E186 by PCR (cf. above). Resulting cDNAs were cloned into pET28b+(Novagen) and transformed into E. coli strain HMS 174. For recombinant expression, the resulting E. coli strains were cultured in fermentors in a defined medium at 37° C. Induction of recombinant expression was initiated by the addition of 1 mM of IPTG and temperature was lowered to 25° C. Cultures were harvested at 4, 8 or 24 h post-IPTG induction. TNFα variants were purified to >90% homogeneity by affinity chromatography using a TNFα specific monoclonal antibody as described in Nielsen et al., (2004), J Biol. Chem. 279:33593-33600. The purified TNFα variants were characterized by MALDI-TOF mass spectrometry to verify their identity and integrity.
In Situ Protease Assay: Analysis of the Protease Resistance of TNF-α Variants Using Western Blot
Aliquots (1 ml) of E. coli cell cultures, expressing the various TNF-α variants to be tested, were centrifuged (5000 g/5 min/5° C.) and the culture medium was discarded. Cell pellets were resuspended in 1 ml of 20 mM Bis-Tris, pH 6.0. Cell disruption was achieved by sonication (4×15 sec at an amplitude of 11 μm with 20 sec pauses between each sonication round). The resulting suspensions were centrifuged (20000 g/30 min/8° C.) and the supernatants (crude extracts) were transferred to fresh tubes. Crude extracts were then analysed for protein content using a Bradford protein assay (Biorad). Equivalent amounts of proteins were loaded onto 4-12% NuPAGE gels (Novex). After SDS-PAGE, proteins were transferred onto nitrocellulose membrane by semi-dry blotting. For immunoreaction, incubation with rabbit TNFα antiserum (1 h; dilution 1:10 000) and with horse radish peroxidase-conjugated secondary antibody (Dako P448) were carried out in Tris 50 mM, NaCl 150 mM, EDTA 5 mM, Igepal 0.1%, gelatine 0.5%. Detection was with ECL™ reagents (GE Healthcare).

HLA DRB1 *1302 [4] = molecular target: T3, HLA DRB1 *1302 (Homo sapiens, UniProt P01903+P01911, A100E/A169T/K41T/L162R/M171V/P40S/Q125H/Q178H/Q39Y/Q99D/R42S/S66N/T262R/V115G/W38E/Y61H); assay: IC50nM to purified HLA | DRB1 *1302
T3 sequence (P01903 26-254 limits assumed, other chains not shown): as above
Procedure: as §1
(§7) Head of the field: IC50nM to purified HLA | DRB1 *1302
as §3
(§8) Where the first naming reader finds the target: head: IC50nM to purified HLA | DRB1 *1302

HLA DRB1 *0405 [5] = molecular target: T4, HLA DRB1 *0405 (Homo sapiens, UniProt P01903+P01911, A100R/A169T/D86S/F76Y/I96L/K127E/L162R/M171V/N62H/P40V/Q125Y/R42H/S133A/S149N/S66Y/V115G/V209L/W38E); assay: IC50nM to purified HLA | DRB1 *0405
Procedure: as §1
(§9) Head of the field: IC50nM to purified HLA | DRB1 *0405
as §3
(§10) Where the first naming reader finds the target: head: IC50nM to purified HLA | DRB1 *0405

HLA DRB1 *0901 = HLA DRB1 *0901 (Homo sapiens, UniProt P01903+P01911, A100R/A103E/D57H/D86V/F55Y/F60I/F76Y/I96F/K127E/L162R/M171V/P40D/Q125H/Q99R/R33Q/R42F/S133A/S66N/T210M/V115G/W38K/Y107V/Y59G/Y89S); assay: IC50nM to purified HLA | DRB1 *0901
Procedure: as §1
Head of the field: IC50nM to purified HLA | DRB1 *0901
as §3
Where the first naming reader finds the target: head: IC50nM to purified HLA | DRB1 *0901

HLA DRB1 *1101 = HLA DRB1 *1101 (Homo sapiens, UniProt P01903+P01911, A100R/A169T/A87E/I96F/K41T/L162R/M171V/P40S/Q125H/Q178H/Q39Y/Q99D/R42S/S66Y/T262R/V115G/W38E); assay: IC50nM to purified HLA | DRB1 *1101
Sequence of HLA DRB1 *1101 (P01903 26-254 limits assumed, other chains not shown): as above
Procedure: as §1
Head of the field: IC50nM to purified HLA | DRB1 *1101
as §3
Where the first naming reader finds the target: head: IC50nM to purified HLA | DRB1 *1101

HLA DRB1 *0101 = HLA DRB1 *0101 (Homo sapiens, UniProt P01903+P01911, A100R/D57E/F55L/F60I/F76Y/I96L/L162R/M171V/P40L/Q125E/R42F/V115G/Y59C); assay: IC50nM to purified HLA | DRB1 *0101
Procedure: as §1
Head of the field: IC50nM to purified HLA | DRB1 *0101
as §3
Where the first naming reader finds the target: head: IC50nM to purified HLA | DRB1 *0101

HLA DRB1 *0802 [6] = molecular target: T2, HLA DRB1 *0802; assay: IC50nM to purified HLA | DRB1 *0802; remark: listed apart in the source
Procedure: as §1, §5
(§11) First copying reader's note: Continued from an earlier sheet of FIG. 1; decimal commas as printed, analog names encode substituted residues and positions, and some values are printed in italics or bold and some SEQ ID NOs underlined without a legend on this sheet.
as §6

HLA DRB1 *1302 [7] = molecular target: T3, HLA DRB1 *1302; assay: IC50nM to purified HLA | DRB1 *1302; remark: listed apart in the source
Procedure: as §1, §7, §11, §8

HLA DRB1 *0404 = HLA DRB1 *0404 (Homo sapiens, UniProt P01903+P01911, A100R/A169T/F76Y/I96L/K127E/L162R/M171V/N62H/P40V/Q125Y/R42H/S133A/S149N/S66Y/V209L/W38E); assay: IC50nM to purified HLA | DRB1 *0404
Procedure: as §1
Head of the field: IC50nM to purified HLA | DRB1 *0404
as §11
Where the first naming reader finds the target: head: IC50nM to purified HLA | DRB1 *0404

HLA DRB1 *1501 = HLA DRB1 *1501 (Homo sapiens, UniProt P01903+P01911); assay: IC50nM to purified HLA | DRB1 *1501
Procedure: as §1
Head of the field: IC50nM to purified HLA | DRB1 *1501
as §11
Where the first naming reader finds the target: head: IC50nM to purified HLA | DRB1 *1501

HLA DRB4 *0101 = HLA DRB4 *0101 (Homo sapiens, UniProt P01903+P13762, G164S); assay: IC50nM to purified HLA | DRB4 *0101
Sequence of HLA DRB4 *0101 (P01903 26-254 limits assumed): as the sequence (P01903 26-254 limits assumed, other chains not shown) above
Sequence of HLA DRB4 *0101 (P13762 whole entry G164S): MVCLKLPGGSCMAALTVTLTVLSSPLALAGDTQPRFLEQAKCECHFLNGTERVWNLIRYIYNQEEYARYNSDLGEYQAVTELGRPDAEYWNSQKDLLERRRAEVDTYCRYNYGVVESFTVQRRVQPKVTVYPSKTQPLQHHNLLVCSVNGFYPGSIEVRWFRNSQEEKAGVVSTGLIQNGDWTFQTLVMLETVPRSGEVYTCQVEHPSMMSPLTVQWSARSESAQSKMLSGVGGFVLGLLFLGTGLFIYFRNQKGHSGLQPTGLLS
Procedure: as §1
Head of the field: IC50nM to purified HLA | DRB4 *0101
as §11
Where the first naming reader finds the target: head: IC50nM to purified HLA | DRB4 *0101

HLA DRB1 *0405 [8] = molecular target: T4, HLA DRB1 *0405; assay: IC50nM to purified HLA | DRB1 *0405; remark: listed apart in the source
Procedure: as §1, §9, §11, §10

HLA DRB1 *0701 [9] = molecular target: T1, HLA DRB1 *0701; assay: IC50nM to purified HLA | DRB1 *0701; remark: listed apart in the source
Procedure: as §1, §2, §11, §4

Row | Sequence | IC50 (HLA DRB1 *0701 [1]) [nM] | IC50 (HLA DRB1 *0401) [nM] | IC50 (HLA DRB1 *0802 [2]) [nM] | IC50 (HLA DRB5 *0101) [nM] | IC50 (HLA DRB1 *0301) [nM] | protease resistance of PADRE analogue sequence [3] | IC50 (HLA DRB1 *1302 [4]) [nM] | IC50 (HLA DRB1 *0405 [5]) [nM] | IC50 (HLA DRB1 *0901) [nM] | IC50 (HLA DRB1 *1101) [nM] | IC50 (HLA DRB1 *0101) [nM] | IC50 (HLA DRB1 *0802 [6]) [nM] | IC50 (HLA DRB1 *1302 [7]) [nM] | IC50 (HLA DRB1 *0404) [nM] | IC50 (HLA DRB1 *1501) [nM] | IC50 (HLA DRB4 *0101) [nM] | IC50 (HLA DRB1 *0405 [8]) [nM] | IC50 (HLA DRB1 *0701 [9]) [nM]
1 | AAAHFVAANTLHAAA [SEQ ID NO: 29] | 76 | 4.5 | 17 | 33 | 361 | increased resistance towards proteolytic degradation | 47 | 18 | 37 | 22 | 4.1 | – | – | – | – | – | – | –
2 | AAAIFVAAWTLHAAA [SEQ ID NO: 69] | – | – | – | – | – | increased resistance towards proteolytic degradation | – | – | – | – | – | 12 | 891 | 3.7 | 9.4 | 84 | 13 | 78
